Usually IC50 stands for the concentration that gives 50% inhibition. The term T/C denotes the ratio of treated to control.

One assay concerns Piricularia oryzae D91. As to the kind of experiment: microbe, parasite or virus in culture. The format is cell-based. Conditions: 40 h, pH 7.
The next assay concerns A. fumigatus IAM2034. As to the kind of experiment: microbe, parasite or virus in culture. Conditions: Aspergillus fumigatus, IAM2034, 40 h, pH 7.
Assay [1] deals with Sporothrix schenckii IF08158. Put plainly: microbe, parasite or virus in culture. Conditions: IF08158, 40 h, pH 7.
Method: (§4) In vitro antifungal activity was determined against various fungi by the serial agar dilution method. Sabouraud dextrose agar (pH 7.0) was used for the experiment. The inoculum size was adjusted to 10^6 CFU/ml. After incubation at 28° C. for 40 hours, the minimum inhibitory concentration (MIC) was examined.
A further assay concerns Candida albicans IAM4888. Put plainly: In vitro antifungal activity, serial agar dilution. Particulars: IAM4888, 40 h, pH 7. Background: In agar dilution the substance is mixed into plates at graded concentrations.
The subject of the next assay is C. albicans A9540. As to the kind of experiment: In vitro antifungal activity, serial agar dilution. Particulars: Candida albicans, A9540, 40 h, pH 7.
For assay [2], the system named is Cryptococcus neoformans D49. Put plainly: In vitro antifungal activity, serial agar dilution. Conditions: D49, 40 h, pH 7.
Method: as §4
Another assay concerns C. neoformans IAM4514. Put plainly: In vitro antifungal activity, serial agar dilution. Conditions: Cryptococcus neoformans, IAM4514, 40 h, pH 7.
Assay [3] deals with Aspergillus fumigatus IAM2530. Put plainly: In vitro antifungal activity, serial agar dilution. Particulars: IAM2530, 40 h, pH 7.
Method: as §4
The test system of the next assay is A. flavus FA21436. As to the kind of experiment: In vitro antifungal activity, serial agar dilution. Particulars: Aspergillus flavus, FA21436, 40 h, pH 7.
For assay [4], the system named is Fusarium moniliforme A2284. As to the kind of experiment: In vitro antifungal activity, serial agar dilution. Conditions: Fusarium verticillioides, A2284, 40 h, pH 7.
Method: as §4
The subject of assay [5] is Trichophyton mentagrophytes D155. As to the kind of experiment: In vitro antifungal activity, serial agar dilution. Particulars: D155, 40 h, pH 7.
Method: as §4
The next assay concerns T. mentagrophytes #4329. As to the kind of experiment: In vitro antifungal activity, serial agar dilution. Particulars: Trichophyton mentagrophytes, 40 h, pH 7.
For assay [6], the system named is Blastomyces dermatidis D40. Put plainly: In vitro antifungal activity, serial agar dilution. Conditions: D40, 40 h, pH 7.
Method: as §4
The test system of assay [7] is Petriellidium boydii IF08078. As to the kind of experiment: In vitro antifungal activity, serial agar dilution. Particulars: Scedosporium boydii, IF08078, 40 h, pH 7.
Method: as §4
In the next assay the test system is Mucor spinosus IF05317. As to the kind of experiment: In vitro antifungal activity, serial agar dilution. Conditions: IF05317, 40 h, pH 7.
For assay [8], the system named is B16-F10 (murine melanoma) cells. Put plainly: In vitro cytotoxicity (Table 14). The class given is cell-based. Particulars: Mus musculus, B16-F10, 72 h.
Method: (§5) B16-F10 (murine melanoma), HCT-116 (human colon carcinoma), A549 (human lung carcinoma) and A549/VP29 (an etoposide-resistant subline of A549) were grown in Eagle's MEM (Nissui) supplemented with FCS (fetal calf serum, 10%) and non-essential amino acids (B16-F10), or in McCoy's 5A medium (Gibco) with FCS (10%), essential and non-essential amino acids, vitamins and antibiotics (HCT-116 and both of A549) at 37° C. under a humidified atmosphere in a 5% CO2 incubator. Exponentially growing B16-F10, HCT-116 and A549 cells were harvested, counted and suspended in the culture medium at 1.5×10^4, 3×10^4 and 3×10^4 cells/ml, respectively. After planting 180 μl of cell suspension into wells of a 96-well microtiter plate on day 0, the test materials (20 μl) were added on day 1 and the plates were incubated for 72 hours. The cytotoxic activity was colorimetrically determined at 540 nm after staining viable cells with neutral red solution.
Assay [9] has as its system HCT-116 (human colon carcinoma) cells. As to the kind of experiment: In vitro cytotoxicity (Table 14). Particulars: HCT-116, 72 h. The class given is cell-based.
Method: as §5
The test system of assay [10] is B16-F10 (murine melanoma) cells. As to the kind of experiment: In vitro cytotoxicity (Table 6). The format is cell-based. Conditions: Mus musculus; B16-F10, 72 hrs, neutral red. The procedure:
(§1) BU-3285T was tested for in vitro cytotoxicity against several murine and human tumor cell lines and for in vivo antitumor activity in mice. Mitomycin C was used as a reference compound in both in vitro and in vivo experiments. B16-F10 (murine melanoma) and Moser (human colorectal carcinoma) cells were grown to the logarithmic phase in an enriched Eagle minimum essential medium supplemented with fetal calf serum (FCS, 10%) and kanamycin (60 μg/ml); HCT-116 (human colon carcinoma) cells were in McCoy's 5A medium supplemented with FCS (10%), penicillin (100 U/ml) and streptomycin (100 μg/ml); and P388 (murine lymphocytic leukemia) cells and its vincristine-resistant subline (P388/VCR) were in RPMI 1640 medium supplemented with FCS (10%), penicillin (100 U/ml) and streptomycin (100 μg/ml).
(§2) B16-F10, Moser, HCT-116 and P388 cells were harvested and implanted into wells of a 96-well (for B16-F10, Moser and HCT-116 cells) or a 24-well (for P388 cells) tissue culture plate with test materials at the inoculum sizes of 3×10^4, 6 ×10^4, 6×10^4 and 2×10^4 cells/ml, respectively. They were incubated at 37° C. in a humidified atmosphere of 5% CO2 and 95% air for 72 hrs. […] For P388 cells, the number of viable cells was determined by a Coulter counter.

The subject of assay [11] is HCT-116 (human colon carcinoma) cells. Put plainly: In vitro cytotoxicity (Table 6). The format is cell-based. Particulars: HCT-116, 72 hrs, neutral red. The procedure:
as §1, §2

For assay [12], the system named is Moser (human colorectal carcinoma) cells. As to the kind of experiment: In vitro cytotoxicity (Table 6). Conditions: Homo sapiens, 72 h. The procedure: as §1, §2
Assay [13] concerns DNA biosynthesis in L1210 leukemia cells. As to the kind of experiment: Inhibition of macromolecule biosynthesis, DNA (Table 7). Particulars: Mus musculus, L1210; 3H-thymidine, ^14 C-uridine or 3H-leucine precursor; 15 min + 60 min, 37° C.; read-out: IC50, DNA synthesis. The format is cell-based, murine. The procedure:
(§3) Inhibitory effects of BU-3285T on macromolecule biosynthesis (DNA, RNA and protein) were determined in cultured L1210 murine leukemia cells. The cells (5×10^5 cells/ml) were incubated with the compound at 37° C. for 15 minutes and then further incubated for 60 minutes after the addition of labelled precursor, ^3 H-thymidine, ^14 C-uridine or ^3 H-leucine into the cultured mixture. After washing with chilled 5% trichloroacetic acid solution, the radioactivity incorporated into the acid-insoluble fraction of the cells was determined by a liquid scintillation counter.

Assay [14] concerns RNA biosynthesis in L1210 leukemia cells. Put plainly: Inhibition of macromolecule biosynthesis, RNA (Table 7). Particulars: Mus musculus, labelled precursor, 15 min + 60 min, 37° C., read-out: IC50, RNA synthesis. The class given is cell-based, murine. The procedure: as §3
The test system of assay [15] is protein biosynthesis in L1210 leukemia cells. Put plainly: Inhibition of macromolecule biosynthesis, protein (Table 7). The class given is cell-based, murine. Conditions: Mus musculus, L1210; labelled precursor; 15 min + 60 min, 37° C.; read-out: IC50, protein synthesis. The procedure: as §3
In a further assay the test system is P388 leukemia. As to the kind of experiment: In vivo antitumor activity against P388 leukemia (Table 8). Conditions: Q1D × 3.
The subject of another assay is L1210 leukemia. Put plainly: In vivo antitumor activity against L1210 leukemia (Table 9). Particulars: Q1D × 3.
The subject of assay [16] is A549 (human lung carcinoma) cells. Put plainly: In vitro cytotoxicity (Table 14). The format is cell-based. Conditions: A549, 72 h.
Method: as §5
In assay [17] the test system is A549/VP29 (etoposide-resistant subline of A549) cells. Put plainly: In vitro cytotoxicity (Table 14). Conditions: A549/VP29, 72 hours, neutral red.
Method: After planting 180 μl of cell suspension into wells of a 96-well microtiter plate on day 0, the test materials (20 μl) were added on day 1 and the plates were incubated for 72 hours. The cytotoxic activity was colorimetrically determined at 540 nm after staining viable cells with neutral red solution.
Another assay relates to B16 melanoma. Conditions: reported; cited from earlier work.
The next assay relates to fungi. Conditions: reported; cited from earlier work.
Setting [18] is: 0.1 mg/kg/day ip, significant if T/C ≥ 125%.
Where [19] appears, read: 0.3 mg/kg/day ip, *2 significant, T/C ≥ 125%.
[20] abbreviates: 1 mg/kg/day ip, *2 significant, T/C ≥ 125%.
Setting [21] is: 3 mg/kg/day ip, *2 significant, T/C ≥ 125%.

Values after ≈ are worked out from the molar mass of the structure shown.

Method for A. flavus FA21436: as §4
Method for A. fumigatus IAM2034: as §4
Method for C. albicans A9540: as §4
Method for C. neoformans IAM4514: as §4
Method for Candida albicans IAM4888: as §4
Method for Mucor spinosus IF05317: as §4
Method for T. mentagrophytes #4329: as §4

As to `CC(=O)N1CCN(c2ccc(OCC3COC(Cn4ccnc4)(c4ccc(Cl)cc4Cl)O3)cc2)CC1` (stereo not drawn) [Ketoconazole], the MIC against Piricularia oryzae D91 turned out to be 3.1 µg/mL (≈ 5.83 µM); against A. fumigatus IAM2034, 6.3 µg/mL (≈ 11.9 µM); in assay [1] it was 6.3 µg/mL (≈ 11.9 µM); in the assay on Candida albicans IAM4888 it was 50 µg/mL (≈ 94.1 µM); in the assay on C. albicans A9540 it was 50 µg/mL (≈ 94.1 µM); in assay [2], 0.4 µg/mL (≈ 0.753 µM). Further, the MIC was 0.4 µg/mL (≈ 0.753 µM) with C. neoformans IAM4514; 3.1 µg/mL (≈ 5.83 µM) in assay [3]; 0.4 µg/mL (≈ 0.753 µM) with A. flavus FA21436; 6.3 µg/mL (≈ 11.9 µM) in assay [4]; 1.6 µg/mL (≈ 3.01 µM) in assay [5]; 1.6 µg/mL (≈ 3.01 µM) against T. mentagrophytes #4329. The MIC in [6] was determined as 0.4 µg/mL (≈ 0.753 µM); in assay [7] it was 1.6 µg/mL (≈ 3.01 µM); with Mucor spinosus IF05317 it was 100 µg/mL (≈ 188 µM).
For `C[C@@H]1[C@H](O)[C@@H](C)/C=C/C=C/C=C/C=C/C=C/C=C/C=C/[C@H](O[C@@H]2O[C@H](C)[C@@H](O)[C@H](N)[C@@H]2O)C[C@@H]2O[C@](O)(C[C@@H](O)C[C@@H](O)[C@H](O)CC[C@@H](O)C[C@@H](O)CC(=O)O[C@H]1C)C[C@H](O)[C@H]2C(=O)O` [Amphotericin B], the MIC was 12.5 µg/mL (≈ 13.5 µM) with Piricularia oryzae D91; 3.1 µg/mL (≈ 3.35 µM) with A. fumigatus IAM2034; more than 100 µg/mL in assay [1]; 1.6 µg/mL (≈ 1.73 µM) with Candida albicans IAM4888; 1.6 µg/mL (≈ 1.73 µM) in the assay with C. albicans A9540; 0.8 µg/mL (≈ 0.866 µM) in assay [2]. For the same compound, the MIC was 0.8 µg/mL (≈ 0.866 µM) against C. neoformans IAM4514; 3.1 µg/mL (≈ 3.35 µM) in assay [3]; 1.6 µg/mL (≈ 1.73 µM) against A. flavus FA21436; 3.1 µg/mL (≈ 3.35 µM) in [4]; 6.3 µg/mL (≈ 6.82 µM) in assay [5]; 6.3 µg/mL (≈ 6.82 µM) against T. mentagrophytes #4329. The MIC is 12.5 µg/mL (≈ 13.5 µM) in assay [6], more than 100 µg/mL in [7] and 6.3 µg/mL (≈ 6.82 µM) with Mucor spinosus IF05317.
Regarding `COc1cccc2c1C(=O)c1c(O)c3c(c(O)c1C2=O)C[C@@](O)(C(=O)CO)C[C@@H]3O[C@H]1C[C@H](N)[C@H](O)[C@H](C)O1` [Adriamycin, reference compound], the figures for the IC50 in assay [8] and in [9] were 0.03 µg/mL (≈ 0.0552 µM) and 0.3 µg/mL (≈ 0.552 µM), respectively.
Regarding `CO[C@@]12[C@H](COC(N)=O)C3=C(C(=O)C(C)=C(N)C3=O)N1C[C@@H]1N[C@@H]12` [Mitomycin C, reference compound], the IC50 is 0.5 µg/mL (≈ 1.5 µM) in assay [10]; 0.8 µg/mL (≈ 2.39 µM) in assay [11]; 1.2 µg/mL (≈ 3.59 µM) in assay [12]; 1.7 µg/mL in assay [13]; more than 100 µg/mL in assay [14]; more than 100 µg/mL in assay [15]. Moreover, the “MST (median survival time)” value in the assay on P388 leukemia (0.1 mg/kg/day ip) came out at 11.5 days; in the assay on P388 leukemia (0.3 mg/kg/day ip), 14.0 days; in the assay with P388 leukemia (1 mg/kg/day ip), 13.5 days; in the assay on P388 leukemia (3 mg/kg/day ip) it was 20.0 days; with L1210 leukemia (0.1 mg/kg/day ip), 8.5 days; in the assay on L1210 leukemia (0.3 mg/kg/day ip), 10.0 days. Also, the “MST (median survival time)” value was found to be 9.5 days in the assay on L1210 leukemia (1 mg/kg/day ip) and 13.0 days with L1210 leukemia (3 mg/kg/day ip). In addition, the T/C in the assay with P388 leukemia (setting [18]) amounted to 115%; in the assay with P388 leukemia (setting [19]) it was 140%; in the assay on P388 leukemia (setting [20]), 135%; in the assay on P388 leukemia (setting [21]), 200%; in the assay on L1210 leukemia (setting [18]), 121%; in the assay on L1210 leukemia (setting [19]), 143%. The T/C in the assay on L1210 leukemia (setting [20]) is recorded as 136%; in the assay on L1210 leukemia (setting [21]), 186%.
Take `COc1cc([C@@H]2c3cc4c(cc3[C@@H](O[C@@H]3O[C@@H]5CO[C@@H](C)O[C@H]5[C@H](O)[C@H]3O)[C@H]3COC(=O)[C@H]23)OCO4)cc(OC)c1O` [VP16, reference compound]: the IC50 in [8] was 0.21 µg/mL (≈ 0.357 µM); in [9], 5.3 µg/mL (≈ 9 µM); in assay [16], 1.2 µg/mL (≈ 2.04 µM); in assay [17], 40 µg/mL (≈ 68 µM).
Regarding `C[C@@](O)(/C=C/[C@H]1CC=CC(=O)O1)[C@@H](C[C@@H](O)\C=C/C=C\C=C\CO)OP(=O)(O)O` [fostriecin], in the assay with B16 melanoma, the “antitumor effect against B16 melanoma” value is recorded as “no antitumor effect against B16 melanoma”. Besides, the antifungal activity result in the assay on fungi is “no antifungal activity”.

(Values after patent publication US5036008A, “Antitumor antibiotic BU-3285T” (Bristol-Myers Company, priority 1990, dated 1991).)
